# According to paper PMC4594923, “Food Polyphenols Fail to Cause a Biologically Relevant Reduction of COX-2 Activity” (PLoS ONE, 2015):
# pIC50: −log10 of the molar value. Entries after “also recorded” stand apart in the source; their conditions may differ. Marks after values point to notes of the source that are not given here.
# What was measured:
# [1] = test system: arachidonic acid (AA) cascade; experiment: plasma oxylipin/PG levels in LPS induced sepsis in mice;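 as to all read-outs here: male C57BL/6N mice given LPS, plasma oxylipins quantified by LC-MS after solid-phase extraction, pretreatment or vehicle given intraperitoneally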; assay type: in vivo, C57BL/6N mice; conditions: mice, 24 h after LPS, vs. LPS group; for plasma PGE2 level: compound i. p. 100 mg/kg bw 2 h before LPS (10 mg/kg bw i. p.)
# COX–2 = conditions: different murine colitis models; cited from earlier work
# ovine recombinant COX–1 [2] = target: T1, ovine recombinant COX–1 (Ovis aries, UniProt P05979); experiment: cell-free COX–1 enzyme assay (PGE2 formation, LC-MS); assay type: biochemical; design: purchased Cayman Chemicals/ Biomol, Hamburg, Germany
# T1 sequence (P05979 25-600): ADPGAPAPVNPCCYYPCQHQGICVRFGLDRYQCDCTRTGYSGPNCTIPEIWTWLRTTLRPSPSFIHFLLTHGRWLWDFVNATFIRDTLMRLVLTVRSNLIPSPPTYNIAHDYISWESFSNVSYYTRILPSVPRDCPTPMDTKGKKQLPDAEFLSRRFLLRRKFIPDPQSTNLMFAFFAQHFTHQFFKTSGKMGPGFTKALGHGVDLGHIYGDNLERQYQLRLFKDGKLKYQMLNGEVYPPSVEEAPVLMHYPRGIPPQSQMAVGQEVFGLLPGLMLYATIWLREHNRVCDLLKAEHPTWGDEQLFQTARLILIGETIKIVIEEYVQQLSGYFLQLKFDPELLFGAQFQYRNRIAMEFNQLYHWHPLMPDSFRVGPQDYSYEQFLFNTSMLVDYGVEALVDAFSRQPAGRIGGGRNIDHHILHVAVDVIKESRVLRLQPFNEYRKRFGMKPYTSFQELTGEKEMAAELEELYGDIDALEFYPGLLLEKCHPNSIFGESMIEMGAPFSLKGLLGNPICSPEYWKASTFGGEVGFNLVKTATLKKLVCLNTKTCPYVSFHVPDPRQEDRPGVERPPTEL
# Procedure: The in vitro assays were performed as described [6, 16, 18] and COX metabolites were quantified by LC-MS [18].
# Primary human monocytes were freshly isolated from human blood. Blood was collected from healthy human subjects after written informed consent was obtained. […] After 24 h, the supernatant was sampled for LC-MS and cells were collected for the COX–2 expression analysis by Western Blotting.
# GraphPad Prism 5.0 (GraphPad Software, San Diego, USA) was used for data analysis, the fitting of dose response curves and calculation of the IC50 values. Statistical differences were determined by Dunnetts test (LPS vs. other groups).
# [3] = test system: arachidonic acid (AA) cascade; experiment: kidney tissue oxylipin/PG levels in LPS induced sepsis in mice;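 also: male C57BL/6N mice challenged with LPS, kidney taken 24 h later, oxylipins quantified by LC-MS after solid-phase extraction of tissue homogenate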
# ovine recombinant COX–1 [4] = target: T1, ovine recombinant COX–1; conditions: based on PGE2 formation, n=3, same assay conditions; cited from earlier work
# COX–2 protein [5] = conditions: Western Blot, same assay conditions; cited from earlier work
# COX–2 protein [6] = conditions: Western Blot, same assay conditions; cited from earlier work; remark: listed apart in the source
# [7] = kidney tissue 24 h after LPS treatment, LPS +, mean
# [8] = kidney tissue 24 h after LPS treatment, LPS +, mean, < = below LOQ
# [9] = mice, compound i. p. 100 mg/kg bw 2 h before LPS, 24 h after LPS, vs. LPS group
smiles,measurement,setting,value
"Oc1ccc(/C=C/c2cc(O)cc(O)c2)cc1 [Resveratrol, resveratrol]",plasma PGE2 level,[1],increased
same,plasma PGE2 level,[1]; listed as resveratrol,elevated
same,sum of linoleic acid (LA) derived epoxy-metabolites in plasma,[1]; compound i. p. 100 mg/kg bw 2 h before LPS,decrease
same,COX–2 expression and PGE2 production,COX–2,reduced COX–2 expression and PGE2 production
same,pIC50,ovine recombinant COX–1 [2],6.31
same,"effect on COX–1 dependent PGE2 formation, cell-free enzyme assay",ovine recombinant COX–1 [2],dose-dependently decreased; also recorded: inhibited
same,"1a,1b-dihomo-PGF2α",[3]; [7],3.9^‡ nM
same,"4,5-DiHDPE",[3]; [7],15 nM
same,4-HDHA,[3]; [7],16 nM
same,5(6)-EpETrE,[3]; [7],66 nM
same,"5,6-DiHETrE",[3]; [7],1.5 nM
same,5-HEPE,[3]; [7],1.1 nM
same,5-HETE,[3]; [7],12 nM
same,5-oxo-ETE,[3]; [7],17 nM
same,6-keto-PGF1α,[3]; [7],80^* nM
same,"7,8-DiHDPE",[3]; [7],1.7 nM
same,7-HDHA,[3]; [7],2.7 nM
same,8(9)-EpETrE,[3]; [7],15 nM
same,"8,9-DiHETrE",[3]; [7],1.6 nM
same,8-HDHA,[3]; [7],16 nM
same,8-HETE,[3]; [7],4.2 nM
same,8-iPF2a,[3]; [7],3.2^‡ nM
same,9(10)-EpODE,[3]; [7],8.2 nM
same,9(10)-EpOME,[3]; [7],81 nM
same,9(10)-Epoxystearic acid,[3]; [7],40 nM
same,"9,10,13-TriHOME",[3]; [7],7.4 nM
same,"9,10-DiHODE",[3]; [7],1.3 nM
same,"9,10-DiHOME",[3]; [7],22 nM
same,"9,10-Dihydroxystearic acid",[3]; [7],60 nM
same,"9,12,13-TriHOME",[3]; [7],45 nM
same,9-HETE,[3]; [7],3.1 nM
same,9-HODE,[3]; [7],350^* nM
same,9-HOTrE,[3]; [7],3.9 nM
same,9-oxo-ODE,[3]; [7],43 nM
same,10(11)-EpDPE,[3]; [7],30 nM
same,"10,11-DiHDPE",[3]; [7],2.3 nM
same,10-HDHA,[3]; [7],3.5 nM
same,11(12)-EpETE,[3]; [7],1.5 nM
same,11(12)-EpETrE,[3]; [7],35 nM
same,"11,12-DiHETrE",[3]; [7],2.6 nM
same,11-HDHA,[3]; [7],4.9 nM
same,11-HETE,[3]; [7],31^‡ nM
same,12(13)-EpODE,[3]; [7],3.4 nM
same,12(13)-EpOME,[3]; [7],59 nM
same,"12,13-DiHOME",[3]; [7],48 nM
same,12-HEPE,[3]; [7],2.1 nM
same,12-HETE,[3]; [7],24 nM
same,13(14)-EpDPE,[3]; [7],24 nM
same,"13,14-DiHDPE",[3]; [7],3.2 nM
same,"13,14-dihydro-15-keto-PGF2α",[3]; [7],4.3^‡ nM
same,13-HDHA,[3]; [7],11^‡ nM
same,13-HODE,[3]; [7],270 nM
same,13-HOTrE,[3]; [7],3.6 nM
same,13-oxo-ODE,[3]; [7],6.1 nM
same,14(15)-EpETE,[3]; [7],1.7 nM
same,14(15)-EpETrE,[3]; [7],28 nM
same,"14,15-DiHETE",[3]; [7],0.62 nM
same,"14,15-DiHETrE",[3]; [7],7.1 nM
same,14-HDHA,[3]; [7],12 nM
same,15(16)-EpODE,[3]; [7],24 nM
same,15(S)-HETrE,[3]; [7],7.4^‡ nM
same,"15,16-DiHODE",[3]; [7],20 nM
same,15-HETE,[3]; [7],38^‡ nM
same,15-oxo-ETE,[3]; [7],7.5 nM
same,16(17)-EpDPE,[3]; [7],23 nM
same,"16,17-DiHDPE",[3]; [7],8.5 nM
same,16-HDHA,[3]; [7],6.9 nM
same,17(18)-EpETE,[3]; [7],2.5 nM
same,"17,18-DiHETE",[3]; [7],2.6^* nM
same,17-HDHA,[3]; [7],17 nM
same,18-HEPE,[3]; [7],1.3 nM
same,19(20)-EpDPE,[3]; [7],43 nM
same,"19,20-DiHDPE",[3]; [7],68 nM
same,20-HDHA,[3]; [7],19 nM
same,20-HEPE,[3]; [7],5.3 nM
same,EKODE,[3]; [7],45 nM
same,PGD2,[3]; [7],20^† nM
same,PGE1,[3]; [7],11^† nM
same,PGE2,[3]; [7],210^‡ nM
same,PGF1α,[3]; [7],6.2^† nM
same,PGF2α,[3]; [7],70^‡ nM
same,TXB2,[3]; [7],3.8^† nM
same,"5,6-DiHETE",[3]; [8],< 0.25 nM
same,5-iPF2α,[3]; [8],< 1.0 nM
same,8(9)-EpETE,[3]; [8],< 1.0 nM
same,"12,13-DiHODE",[3]; [8],< 2.0 nM
same,"13,14-dihydro-15-keto-PGE1",[3]; [8],0.6 nM
same,20-HETE,[3]; [8],< 2.7 nM
same,PGD1,[3]; [8],0.72 nM
same,PGF2α,"[3]; kidney tissue 24 h after LPS treatment, LPS +, mean, second listing of PGF2α (r9)",70 nM
same,kidney 6-keto-PGF1α level,[3]; [9],increased
same,kidney 8-iPGF2α level,[3]; [9],increased
same,"kidney 13,14-dihydro-15-keto-PGE1 level",[3]; [9],increased
same,kidney PGE2 level,[3]; [9],increased
same,kidney PGF2α level,[3]; [9],increased
C[C@@H]1C[C@H]2[C@@H]3CCC4=CC(=O)C=C[C@]4(C)[C@@]3(F)[C@@H](O)C[C@]2(C)[C@@]1(O)C(=O)CO [dexamethasone],"IC50 (95% CI), cell-free – COX-1",ovine recombinant COX–1 [4],no effect (up to 100 µM)
same,"COX-2 Expression, HCA-7",COX–2 protein [5],no effect (up to 100 µM)
same,"COX-2 Expression, primary monocytes",COX–2 protein [6],1 µM - 3 nM: COX-2 ↓
